# Where a name gives a salt, the structure may show the parent alone. Read-outs that look alike come from different tables or passages of the source.
# What was measured:
# [1] = Dynamic Vapor Sorption (DVS) analysis of salts, with XRPD of the post-DVS sample; type: physicochemical; details: for sorption/desorption behaviour (reversibility, hysteresis): DVS isotherm; for water uptake up to 60% RH / moisture absorption at 70% RH / moisture absorption at 80% RH: first sorption isotherm; for deliquescence during DVS: high RH
# Procedure: XRPD diffractograms were acquired using Bruker D2 Phaser diffractometer equipped with LYNXEYE detector. Samples were prepared using a zero-background sample holder. The samples were scanned from 5 to 32° (2θ) using a step size of 0.02° and a time per step of 0.13 second whilst spinning the sample. Diffractograms were plotted using the EVA program from Bruker.
# DVS analyses were performed on TA Instrument DVS Q5000. Samples were added to a pre-tared metallised quartz crucible and run at 25° C. from 40% RH to 90% RH, down to zero and back to 40%. This cycle was repeated in increments of 10% RH.
# [2] = Thermo-Gravimetric Analysis (TGA), thermal stability; type: physicochemical; details: 10° C./min ramp; for thermally stable up to (TGA): nitrogen
# Procedure: TGA thermograms were obtained with a TA Instrument Discovery 550 in Al pans. The heating rate used was 10° C./min linear ramp from 25 to 400° C. with a nitrogen purging at a rate of 60 ml/min. TGA thermograms were analysed using TRIOS software.
# [3] = Solubility assessments in four different media; type: physicochemical; details: for pH after addition of 1 ml media at 37° C. / Observation / pH after addition of 1.5 ml media at 37° C.: 250 mg per vial; for solubility relative to other salts: comparison of the salt forms
# Procedure: Solubility assessments of 5-MeO-DMT oxalate, hydrobromide fumarate and benzoate were performed in four different media: […]
# [4] = type: physicochemical; details: 40° C./75% RH, three days
# Procedure: Salt screening studies with 24 selected counter-ions were performed to determine if 5-MeO-DMT free base is amenable to salt formation. […] Salts were examined by XRPD, TGA, DSC, 1H NMR and some by DVS analyses. Short term physical stability was examined by storage of salts at 40° C./75% RH for three days.
# Physical stability stress tests were conducted on generated crystalline salts at controlled temperature and relative humidity. The powder samples were stored at 40° C./75% RH for three days. After this time samples were analysed by XRPD to see whether the physical state of salts changed during the storage.
# [5] = Dissolution rate in simulated nasal fluid (UV-fiber optic dissolution apparatus); type: physicochemical; details: 5 mg in 5 mL simulated nasal fluid, 37° C., 150 RPM
# Procedure: The dissolution rate was determined using a method comprising the use of a UV-fiber optic-based dissolution apparatus (one such suitable device is the Rainbow® Dynamic Dissolution Monitor by Pion Inc) and simulated nasal fluid. The simulated nasal fluid comprises 7.45 g/L NaCl, 1.29 g/L KCl, 0.32 g/L CaCl2×2H2O and deionised water.
# The dissolution apparatus was set up with a 2 mm probe to measure the dissolution rate. 5 mg of the salt form was transferred into 5 mL of simulated nasal fluid, heated to a constant temperature of 37° C. and stirred at 150 RPM using a crossed stirrer bar. Measurements were taken at 3 s intervals for 130 intervals followed by 60 measurements taken at 10 s intervals for a total time of 16 minutes and 30 s. Detection of dissolution is by UV absorbance.
# [6] = Oxalate salt solubility by HPLC; type: physicochemical; details: pH 1.2 medium, simulated gastric fluid, thermodynamic from solid, mother liquors adjusted to the desired pH, read-out: Solubility (mg/mL) of free base
# Procedure: The benzoate salt has a solubility of, at least, 100 mg/ml. The calibration curve of the free base was prepared between 0.031-0.500 mg/ml and can be seen in FIG. 172.
# Mother liquors were adjusted to the desired pH before HPLC quantification.
# [7] = Polymorphism screen of hydrochloride salt (thermal cycling, evaporations), XRPD; type: physicochemical
# Procedure: To render the material amorphous and thus remove seeds of the pattern 1 the material was rendered amorphous. To 2.605 g of the hydrochloride lot RPI-014-022 dioxane (55 ml) and water (5 ml) was added. The mixture was agitated gently and warmed to aid dissolution.
# Twenty five of the lyophilised samples were treated with solvent and thermally cycled between ambient and 40° C. with four hours spent under each condition. After three days and solids were isolated by centrifuge filtration and analysed by XRPD.
# Twelve samples of the lyophilised material were treated with a minimal volume (ca 0.5 ml) of warm solvent, syringe filtered through a 0.22 µm filter and added to a clean HPLC vial and allowed to evaporate at RT. The solvents used and XRPD results following evaporation are detailed in the Table below: […]
# [8] = pH 1.2 buffer, 1 ml media at 37° C.
# [9] = pH 4.5 buffer, 1 ml media at 37° C.
# [10] = pH 6.8 buffer, 1 ml media at 37° C.
# [11] = salt screen / scale-up batches, DVS at 25° C
structure (smiles),measurement,setting,value
"COc1ccc2[nH]cc(CCN(C)C)c2c1 [Benzenesulfonate salt, 5-MeO-DMT benzenesulfonate]",total water (moisture) uptake between 0% RH and 90% RH,[1]; 25° C,approximately 21 % w/w
same,"sorption/desorption behaviour (reversibility, hysteresis)",[1]; 25° C,hysteresis between 40-80% RH
same,water uptake up to 60% RH,[1],1.2 % w/w
same,moisture absorption at 70% RH,[1],7 % w/w
same,moisture absorption at 80% RH,[1],14 % w/w
same,deliquescence during DVS,[1],begins to deliquesce
same,thermally stable up to (TGA),[2],250 °C
"COc1ccc2[nH]cc(CCN(C)C)c2c1 [Fumarate salt, 5-MeO-DMT fumarate]",mass difference between 40% RH and 0% RH,[1]; salt produced during scale-up,~ 2.84%
same,solid form after DVS (XRPD post DVS),[1]; salt produced during scale-up,a change in crystalline form occurred
same,thermally stable up to (TGA),[2],150 °C
same,pH after addition of 1 ml media at 37° C.,[3]; SNF,5.14
same,Observation,"[3]; SNF, 1 ml media at 37° C.",Clear solution
same,pH after addition of 1 ml media at 37° C.,[3]; pH 1.2 buffer,5.24
same,Observation,[3]; [8],Clear solution
same,pH after addition of 1 ml media at 37° C.,[3]; pH 4.5 buffer,5.31
same,Observation,[3]; [9],Clear solution
same,pH after addition of 1 ml media at 37° C.,[3]; pH 6.8 buffer,5.79
same,Observation,[3]; [10],Clear solution
"Br.COc1ccc2[nH]cc(CCN(C)C)c2c1 [Hydrobromide salt, 5-MeO-DMT hydrobromide]",crystalline form by XRPD after storage,[4],No change in crystalline form
same,dissolution rate,[5],almost instantaneous
same,solid form after DVS (XRPD post DVS),[1]; salt produced during scale-up,no change in crystalline form
same,hygroscopicity classification,[1]; [11],non-hygroscopic
same,thermally stable up to (TGA),[2],220 °C
same,pH after addition of 1 ml media at 37° C.,[3]; SNF,8.13
same,Observation,"[3]; SNF, 1 ml media at 37° C.",Clear solution
same,solubility relative to other salts,[3],high solubility
same,pH after addition of 1 ml media at 37° C.,[3]; pH 1.2 buffer,8.09
same,Observation,[3]; [8],Clear solution
same,pH after addition of 1 ml media at 37° C.,[3]; pH 4.5 buffer,7.65
same,Observation,[3]; [9],Clear solution
same,pH after addition of 1 ml media at 37° C.,[3]; pH 6.8 buffer,7.82
same,Observation,[3]; [10],Clear solution
"COc1ccc2[nH]cc(CCN(C)C)c2c1.O=C(O)CC(O)C(=O)O [Malate salt, 5-MeO-DMT malate]",crystalline form by XRPD after storage,[4],conversion to a “gum” material
same,thermally stable up to (TGA),[2],around 170 °C
"COc1ccc2[nH]cc(CCN(C)C)c2c1 [Oxalate salt, 5-MeO-DMT oxalate]",solubility,[6],19 mg/mL
same,dissolution rate,[5],prolonged
same,solid form after DVS (XRPD post DVS),[1],no change in the crystalline form
same,pH after addition of 1.5 ml media at 37° C.,[3]; SNF,2.13
same,Observation,"[3]; SNF, 1.5 ml media at 37° C.",Suspension
same,solubility relative to other salts,[3],lowest solubility
same,pH after addition of 1.5 ml media at 37° C.,[3]; pH 1.2 buffer,1.87
same,Observation,"[3]; pH 1.2 buffer, 1.5 ml media at 37° C.",Suspension
same,pH after addition of 1.5 ml media at 37° C.,[3]; pH 4.5 buffer,3.05
same,Observation,"[3]; pH 4.5 buffer, 1.5 ml media at 37° C.",Suspension
same,pH after addition of 1.5 ml media at 37° C.,[3]; pH 6.8 buffer,3.45
same,Observation,"[3]; pH 6.8 buffer, 1.5 ml media at 37° C.",Suspension
"COc1ccc2[nH]cc(CCN(C)C)c2c1 [Phosphate salt, 5-MeO-DMT phosphate]",crystalline form by XRPD after storage,[4],did not undergo any transformation
same,total reversible mass change between 0-90% RH,"[1]; Example 3 Pattern 1 batches, listed as 5-MeO-DMT Phosphate Pattern 1",0.3 wt. %
"COc1ccc2[nH]cc(CCN(C)C)c2c1 [Tartrate salt, 5-MeO-DMT tartrate]",crystalline form by XRPD after storage,[4],No change in the crystalline form
same,total water (moisture) uptake between 0% RH and 90% RH,[1]; 25° C,approximately 3.3 % w/w
same,"sorption/desorption behaviour (reversibility, hysteresis)",[1]; 25° C,reversible and overlap
same,solid form after double-cycle DVS experiment (XRPD),[1]; Example 3 Pattern 1 batches,unchanged
same,total reversible mass change between 0-90% RH,[1]; Example 3 Pattern 1 batches,0.6 wt. %
same,hygroscopicity classification,"[1]; Example 3 Pattern 1 batches, 0-90% RH",slightly hygroscopic (Pharmaceuticals that pick up between 0.2% and 2.0% moisture at 80% RH are considered slightly hygroscopic)
same,hygroscopicity classification,[1]; [11],moderately hygroscopic (Pharmaceuticals that pick up between 2.0% and 15.0% moisture at 80% RH are considered moderately hygroscopic)
same,hygroscopicity classification,"[1]; salt screen / scale-up batches, DVS at 25° C, listed as tartrate salt",moderately hygroscopic (Pharmaceuticals that pick up between 2.0% and 15.0% moisture at 80% RH are considered moderately hygroscopic)
same,solid form after DVS (XRPD post DVS),[1]; salt screen batches,did not undergo any solid form transformation
same,onset of decomposition / mass loss (TGA),[2],175 °C
same,thermally stable up to (TGA),[2],around 170 °C
"COc1ccc2[nH]cc(CCN(C)C)c2c1 [Tosylate salt, 5-MeO-DMT tosylate]",crystalline form by XRPD after storage,[4],identical XRPD pattern
same,total water (moisture) uptake between 0% RH and 90% RH,[1]; 25° C,approximately 1.9 % w/w
same,"sorption/desorption behaviour (reversibility, hysteresis)",[1]; 25° C,reversibly without hysteresis
same,hygroscopicity classification,[1]; [11],slightly hygroscopic (Pharmaceuticals that pick up between 0.2% and 2.0% moisture at 80% RH are considered slightly hygroscopic)
same,solid form after DVS (XRPD post DVS),[1]; salt screen batches,did not undergo any solid-state changes
"COc1ccc2[nH]cc(CCN(C)C)c2c1 [glycolate salt, 5-MeO-DMT glycolate]","total moisture uptake between 0% RH and 90% RH, 1st cycle","[1]; 25° C, 1st cycle",approximately 62 % w/w
same,"total moisture uptake between 0% RH and 90% RH, 2nd cycle","[1]; 25° C, 2nd cycle",~59 % w/w
same,"sorption/desorption behaviour (reversibility, hysteresis)",[1]; 25° C,hysteresis between 40-80% RH
same,water uptake up to 60% RH,[1],2.3 % w/w
same,moisture absorption at 70% RH,[1],11 % w/w
same,moisture absorption at 80% RH,[1],33 % w/w
same,deliquescence during DVS,[1],begins to deliquesce
same,thermally stable up to (TGA),[2],around 155 °C
"COc1ccc2[nH]cc(CCN(C)C)c2c1.Cl [hydrochloride salt, 5-MeO-DMT hydrochloride]",thermally stable up to (TGA),[2],~ 235 °C
same,XRPD Results,"[7]; evaporation at RT of lyophilised material from 1-PrOH, DJP2202-011-02",Pattern 1
same,XRPD Results,"[7]; evaporation at RT of lyophilised material from EtOH, DJP2202-011-05",Pattern 1
same,XRPD Results,"[7]; evaporation at RT of lyophilised material from IPA, DJP2202-011-06",Pattern 1
same,XRPD Results,"[7]; evaporation at RT of lyophilised material from MEK, DJP2202-011-11",Pattern 1
same,XRPD Results,"[7]; evaporation at RT of lyophilised material from MeCN, DJP2202-011-12",Oil

# From patent publication US20260209175A1, “PHARMACEUTICALLY ACCEPTABLE 5-METHOXY-N,N-DIMETHYL[…] AND COMPOSITIONS THEREOF” (priority 2022, published 2026)
